Experimental data from US20070048247A1, “Deodorizing tablets” (Kimberly-Clark Worldwide, Inc., priority 2005, published 2007).

Legend:
[1] = Example 4 urine odor panel ranking; design: species or system Human; details: for Average Rankings, Avg. Score / Urine Odor Ranking 2 (number of panelists) / Urine Odor Ranking 4 (number of panelists) / Urine Odor Ranking 6 (number of panelists) / Urine Odor Ranking 7 (number of panelists) / Urine Odor Ranking 3 (number of panelists) / Urine Odor Ranking 5 (number of panelists) / Urine Odor Ranking 1 (number of panelists): 8 millimolar in urine, scale 1 to 7, 7 most malodorous
Source text: Powders of the aforementioned quinone compounds (commercially available from Sigma-Aldrich Chemical Co., Inc. of St. Louis, Missouri and Noveon Hilton Davis, Inc. of Cincinnati, Ohio) were weighed and placed into the mason jars containing 50 milliliters of urine so that the final concentration of the powder was 8 millimolar (equivalent to 0.5 wt. %).
To aid in the assessment of the quinone compounds, panelists were asked to rank the mason jars from least to most malodorous (on a scale from 1 to 7, with 7 being the most malodors). The results are set forth below in Tables 12 and 13.

[2] = Example 5 urine odor panel ranking; design: species or system Human
Procedure: Assessments were conducted the following day by asking panelists to rate each jar from 1 (least urine malodor) to 8 (most urine malodor). The results are set forth below in Tables 15-18.

[3] = Example 7 urine odor panel ranking (16 millimolar); design: species or system Human; details: 16 millimolar in urine, 1 least, 10 most urine malodor
Procedure: The effectiveness of various quinone compounds in reducing urine odor was compared. […] Human female urine was initially collected and pooled at Kimberly-Clark Corporation. The pooled urine was added to mason jars in 50-milliliter aliquots using an automated pipette aid. Powders of the aforementioned quinone compounds (commercially available from Sigma-Aldrich Chemical Co., Inc. of St. Louis, Missouri and Noveon Hilton Davis, Inc. of Cincinnati, Ohio) were weighed and placed into the mason jars containing 50 milliliters of urine so that the final concentration of the powder was 16 millimolar (equivalent to 1 wt. %). The mason jars were placed in an incubator overnight at 37° C. The experimental setup is set forth in more detail below in Table 21.
Jars were wrapped in foil and placed in an incubator at 37° C. overnight. The jars were divided into four groups (C-F), each sharing the same control jar of urine alone (no powder). Assessments were conducted the following day by asking panelists to rate each jar from 1 (least urine malodor) to 10 (most urine malodor).

[4] = Solubility of powder in urine
[5] = Example 6 urine odor panel ranking; design: species or system Human; details: as Example 5, 1 least, 8 most urine malodor
Source text: The quinone compounds chosen for this example were Alizarin Blue Black B, Remazol Brilliant Blue R and Acid Green 25. The results are set forth below in Tables 19 and 20.

[6] = Example 5 Group B, 8 mM in urine, 1 least, 8 most urine malodor
[7] = Example 5, 8 mM in 50 milliliters of urine
[8] = Example 7, 16 mM in 50 milliliters of urine
[9] = Example 5 Group A, 8 mM in urine, 1 least, 8 most urine malodor

O=C1c2ccccc2C(=O)c2c(O)ccc(O)c21 [1,4-Dihydroxyanthraquinone, 1,4-dihydroxyanthraquinone]
Average Rankings, Avg. Score [1]: 4.75
Urine Odor Ranking 2 (number of panelists) [1]: 1
Urine Odor Ranking 4 (number of panelists) [1]: 1
Urine Odor Ranking 6 (number of panelists) [1]: 1
Urine Odor Ranking 7 (number of panelists) [1]: 1

Nc1ccc(O)c2c1C(=O)c1ccccc1C2=O [1-Amino-4-Hydroxyanthraquinone, 1-amino-4-hydroxyanthraquinone]
Average Rankings, Avg. Score [1]: 5
Urine Odor Ranking 3 (number of panelists) [1]: 1
Urine Odor Ranking 5 (number of panelists) [1]: 2
Urine Odor Ranking 7 (number of panelists) [1]: 1

CC(=O)Nc1ccc(Nc2cc(S(=O)(=O)[O-])c(N)c3c2C(=O)c2ccccc2C3=O)cc1.[Na+] [Acid Blue 40]
odor reduction performance (in words) ([2]; Example 5 Group B): performed well
Average Rankings (Group B), Avg. Score [2, 6]: 4.25
Urine Odor Ranking 2 (number of panelists) [2, 6]: 1
Urine Odor Ranking 4 (number of panelists) [2, 6]: 2
Urine Odor Ranking 7 (number of panelists) [2, 6]: 1
Average Rankings (Group F), Avg. Score ([3]; Example 7 Group F): 3.8
Urine Odor Ranking 1 (number of panelists) ([3]; Example 7 Group F): 1
Urine Odor Ranking 2 (number of panelists) ([3]; Example 7 Group F): 1
Urine Odor Ranking 3 (number of panelists) ([3]; Example 7 Group F): 1
Urine Odor Ranking 4 (number of panelists) ([3]; Example 7 Group F): 1
Urine Odor Ranking 9 (number of panelists) ([3]; Example 7 Group F): 1
Soluble? [4, 7]: Yes
Soluble? [4, 8]: Somewhat

CC(=O)N(C)c1ccc(Nc2cc(S(=O)(=O)[O-])c(N)c3c2C(=O)c2ccccc2C3=O)cc1.[Na+] [Acid Blue 41]
Average Rankings (Group A), Avg. Score [2, 9]: 5
Urine Odor Ranking 4 (number of panelists) [2, 9]: 1
Urine Odor Ranking 5 (number of panelists) [2, 9]: 2
Urine Odor Ranking 6 (number of panelists) [2, 9]: 1
Average Rankings (Group C), Avg. Score ([3]; Example 7 Group C): 3.4
Urine Odor Ranking 2 (number of panelists) ([3]; Example 7 Group C): 2
Urine Odor Ranking 3 (number of panelists) ([3]; Example 7 Group C): 2
Urine Odor Ranking 7 (number of panelists) ([3]; Example 7 Group C): 1
Soluble? [4, 7]: Yes
Soluble? [4, 8]: Yes

Cc1cc(C)c(S(=O)(=O)[O-])c(C)c1Nc1ccc(Nc2c(C)cc(C)c(S(=O)(=O)[O-])c2C)c2c1C(=O)c1ccccc1C2=O.[Na+].[Na+] [Acid Blue 80]
Average Rankings (Group B), Avg. Score [2, 6]: 6.25
Urine Odor Ranking 4 (number of panelists) [2, 6]: 1
Urine Odor Ranking 5 (number of panelists) [2, 6]: 1
Urine Odor Ranking 8 (number of panelists) [2, 6]: 2
Average Rankings (Group F), Avg. Score ([3]; Example 7 Group F): 5.4
Urine Odor Ranking 1 (number of panelists) ([3]; Example 7 Group F): 1
Urine Odor Ranking 5 (number of panelists) ([3]; Example 7 Group F): 1
Urine Odor Ranking 6 (number of panelists) ([3]; Example 7 Group F): 1
Urine Odor Ranking 7 (number of panelists) ([3]; Example 7 Group F): 1
Urine Odor Ranking 8 (number of panelists) ([3]; Example 7 Group F): 1
Soluble? [4, 7]: Yes
Soluble? [4, 8]: Mostly

Cc1ccc(Nc2ccc(O)c3c2C(=O)c2ccccc2C3=O)c(S(=O)(=O)[O-])c1.[Na+] [Acid Violet 43]
Average Rankings (Group A), Avg. Score [2, 9]: 4.75
Urine Odor Ranking 2 (number of panelists) [2, 9]: 2
Urine Odor Ranking 7 (number of panelists) [2, 9]: 1
Urine Odor Ranking 8 (number of panelists) [2, 9]: 1
Average Rankings (Group D), Avg. Score ([3]; Example 7 Group D): 4.2
Urine Odor Ranking 1 (number of panelists) ([3]; Example 7 Group D): 1
Urine Odor Ranking 3 (number of panelists) ([3]; Example 7 Group D): 1
Urine Odor Ranking 4 (number of panelists) ([3]; Example 7 Group D): 1
Urine Odor Ranking 5 (number of panelists) ([3]; Example 7 Group D): 1
Urine Odor Ranking 8 (number of panelists) ([3]; Example 7 Group D): 1
Soluble? [4, 7]: Yes
Soluble? [4, 8]: No

Cc1c(C(=O)O)c(O)cc2c1C(=O)c1c(O)c([C@@H]3O[C@H](CO)[C@@H](O)[C@H](O)[C@H]3O)c(O)c(O)c1C2=O [Carminic Acid, Natural Red 4 (Carminic Acid)]
Average Rankings (Group E), Avg. Score ([3]; Example 7 Group E): 3.6
Urine Odor Ranking 1 (number of panelists) ([3]; Example 7 Group E): 2
Urine Odor Ranking 3 (number of panelists) ([3]; Example 7 Group E): 1
Urine Odor Ranking 4 (number of panelists) ([3]; Example 7 Group E): 1
Urine Odor Ranking 9 (number of panelists) ([3]; Example 7 Group E): 1

Cc1cc(O)c2c(c1)C(=O)c1cc(O)cc(O)c1C2=O [Emodin]
Average Rankings (Group C), Avg. Score ([3]; Example 7 Group C): 7.8
Urine Odor Ranking 5 (number of panelists) ([3]; Example 7 Group C): 1
Urine Odor Ranking 8 (number of panelists) ([3]; Example 7 Group C): 2
Urine Odor Ranking 9 (number of panelists) ([3]; Example 7 Group C): 2
Soluble? [4, 8]: No

Nc1c(S(=O)(=O)O)cc(Nc2ccc(Nc3nc(Cl)nc(Nc4cccc(S(=O)(=O)O)c4)n3)c(S(=O)(=O)O)c2)c2c1C(=O)c1ccccc1C2=O [Procion Blue HB, Reactive Blue 2 (Procion Blue HB)]
Average Rankings, Avg. Score [1]: 3.5
Urine Odor Ranking 1 (number of panelists) [1]: 2
Urine Odor Ranking 2 (number of panelists) [1]: 1
Urine Odor Ranking 4 (number of panelists) [1]: 1
Urine Odor Ranking 7 (number of panelists) [1]: 1
Average Rankings (Group A), Avg. Score [2, 9]: 6.5
Urine Odor Ranking 5 (number of panelists) [2, 9]: 1
Urine Odor Ranking 6 (number of panelists) [2, 9]: 1
Urine Odor Ranking 7 (number of panelists) [2, 9]: 1
Urine Odor Ranking 8 (number of panelists) [2, 9]: 1
Average Rankings (Group F), Avg. Score ([3]; Example 7 Group F): 5.2
Urine Odor Ranking 1 (number of panelists) ([3]; Example 7 Group F): 1
Urine Odor Ranking 4 (number of panelists) ([3]; Example 7 Group F): 1
Urine Odor Ranking 5 (number of panelists) ([3]; Example 7 Group F): 1
Urine Odor Ranking 6 (number of panelists) ([3]; Example 7 Group F): 1
Urine Odor Ranking 9 (number of panelists) ([3]; Example 7 Group F): 1
Urine Odor Ranking 10 (number of panelists) ([3]; Example 7 Group F): 1
Soluble? ([4]; Example 4, 8 millimolar in 50 milliliters of urine): Yes
Soluble? [4, 7]: Yes
Soluble? [4, 8]: Yes

Nc1c(S(=O)(=O)[O-])cc(Nc2cccc(S(=O)(=O)CCOS(=O)(=O)[O-])c2)c2c1C(=O)c1ccccc1C2=O.[Na+].[Na+] [Remazol Brilliant Blue R, Reactive Blue 19 (Remazol Brilliant Blue R)]
reducing urine odor (in words) [1]: most effective in reducing urine odor
Average Rankings, Avg. Score [1]: 1.5
Urine Odor Ranking 1 (number of panelists) [1]: 2
Urine Odor Ranking 2 (number of panelists) [1]: 2
odor reduction performance (in words) ([2]; Example 5 Group B): performed well
Average Rankings (Group B), Avg. Score [2, 6]: 3
Urine Odor Ranking 1 (number of panelists) [2, 6]: 2
Urine Odor Ranking 4 (number of panelists) [2, 6]: 1
Urine Odor Ranking 6 (number of panelists) [2, 6]: 1
Average Rankings, Avg. Score [5]: 4.75
Urine Odor Ranking 2 (number of panelists) [5]: 1
Urine Odor Ranking 3 (number of panelists) [5]: 1
Urine Odor Ranking 7 (number of panelists) [5]: 2
Average Rankings (Group E), Avg. Score ([3]; Example 7 Group E): 3.4
Urine Odor Ranking 1 (number of panelists) ([3]; Example 7 Group E): 1
Urine Odor Ranking 2 (number of panelists) ([3]; Example 7 Group E): 2
Urine Odor Ranking 3 (number of panelists) ([3]; Example 7 Group E): 1
Urine Odor Ranking 9 (number of panelists) ([3]; Example 7 Group E): 1

CCNc1ccc(NCC)c2c1C(=O)c1ccccc1C2=O [Solvent Blue 59]
Average Rankings, Avg. Score [1]: 5.25
Urine Odor Ranking 3 (number of panelists) [1]: 1
Urine Odor Ranking 5 (number of panelists) [1]: 1
Urine Odor Ranking 6 (number of panelists) [1]: 1
Urine Odor Ranking 7 (number of panelists) [1]: 1

Cc1ccc(Nc2ccc(Nc3ccc(C)cc3)c3c2C(=O)c2ccccc2C3=O)cc1 [Solvent Green 3]
Average Rankings, Avg. Score [1]: 3.75
Urine Odor Ranking 2 (number of panelists) [1]: 1
Urine Odor Ranking 3 (number of panelists) [1]: 1
Urine Odor Ranking 4 (number of panelists) [1]: 1
Urine Odor Ranking 6 (number of panelists) [1]: 1

Acid Black 48
Average Rankings (Group C), Avg. Score ([3]; Example 7 Group C): 7.2
Urine Odor Ranking 2 (number of panelists) ([3]; Example 7 Group C): 1
Urine Odor Ranking 6 (number of panelists) ([3]; Example 7 Group C): 1
Urine Odor Ranking 8 (number of panelists) ([3]; Example 7 Group C): 1
Urine Odor Ranking 10 (number of panelists) ([3]; Example 7 Group C): 2
Soluble? [4, 8]: Somewhat
